We go through 31 molecules from patent publication US20170305943A1, “COMPOUNDS FOR THE TREATMENT OF BACTERIAL INFECTIONS” (priority 2014, published 2017).

≈ marks a conversion by molar mass, not a printed value.

Holding throughout (test): Bacterial Assay: Determination of Antibacterial Activity (MIC, broth microdilution or agar dilution)
Type in all cases: cell-based

Experiment [1] has as its system Clostridium difficile (Isolate ID 027-01). Particulars: Clostridioides difficile, 48 h, read-out: MIC (μg/mL) C. difficile (027-01). An outline of the steps: (§1)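 MICs were set by CLSI broth microdilution or agar dilution for anaerobes, read visually after 48 hours at 37° C. under anaerobic gas packs. Medium was reinforced clostridial medium with 0.1% defibrinated horse blood; values are binned as A ≦1.01, B >1.0-4.0, C >4.0-16 μg/mL.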

In experiment [2] the test system is Clostridium difficile (Isolate ID BI-9). Particulars: Clostridioides difficile, 48 h, read-out: MIC (μg/mL) C. difficile (B-I9). An outline of the steps:
as §1

The subject of experiment [3] is Clostridium difficile (Isolate ID ATCC 9689). As to conditions: Clostridioides difficile, ATCC9689, 48 h, read-out: C. difficile MIC Activity Range. A digest of the protocol:
as §1

`NC(=O)c1c(F)ccc(OCc2ccn(-c3ccc(OC(F)(F)F)cc3)n2)c1F` [Compound 108, 2,6-difluoro-3-({1-[4-(trifluoromethoxy)phenyl]-1H-pyrazol-3-yl}methoxy)benzamide]: the values for the MIC in experiment [1], in experiment [2] and in experiment [3] were 0.5 µg/mL (≈ 1.21 µM), 0.5 µg/mL (≈ 1.21 µM) and less than 1.01 µg/mL, respectively. As for `NC(=O)c1c(F)ccc(OCCCCCCOc2ccc(C(F)(F)F)cc2)c1F` [Compound 135, 2,6-difluoro-3-({6-[4-(trifluoromethyl)phenoxy]hexyl}oxy)benzamide], the MIC is 0.5 µg/mL (≈ 1.2 µM) in experiment [1], 0.5 µg/mL (≈ 1.2 µM) in experiment [2] and less than 1.01 µg/mL in experiment [3].

For the molecule `NC(=O)c1c(F)ccc(OCCCCCOc2ccc(OC(F)(F)F)cc2)c1F` [Compound 131, 2,6-difluoro-3-({5-[4-(trifluoromethoxy)phenoxy]pentyl}oxy) benzamide], the MIC in experiment [1] is 0.25 µg/mL (≈ 0.596 µM); in experiment [2] it was 0.25 µg/mL (≈ 0.596 µM); in experiment [3], less than 1.01 µg/mL.

In the case of `NC(=O)c1c(F)ccc(OCCCCCOc2ccc(C(F)(F)F)cc2)c1F` [Compound 132, 2,6-difluoro-3-({5-[4 (trifluoromethyl)phenoxy]pentyl}oxy) benzamide], the MIC in experiment [1] was 0.25 µg/mL (≈ 0.62 µM); in experiment [2] it was 0.5 µg/mL (≈ 1.24 µM); in experiment [3], less than 1.01 µg/mL.

Turning to `NC(=O)c1c(F)ccc(OCC#CCOc2ccc(OC(F)(F)F)cc2)c1F` [Compound 160, 2,6-difluoro-3-({4-[4-(trifluoromethoxy)phenoxy]but-2-yn-1-yl}oxy)benzamide], the MIC is 0.25 µg/mL (≈ 0.623 µM) in experiment [1], 0.25 µg/mL (≈ 0.623 µM) in experiment [2] and less than 1.01 µg/mL in experiment [3]. As to `NC(=O)c1c(F)ccc(OCc2nc(-c3ccc(C(F)(F)F)cc3)c(Br)o2)c1F` [Compound 208, 3-({5-bromo-4-[4-(trifluoromethyl)phenyl]-1,3-oxazol-2-yl}methoxy)-2,6-difluorobenzamide], the MIC is 0.06 µg/mL (≈ 0.126 µM) in experiment [1], 0.06 µg/mL (≈ 0.126 µM) in experiment [2] and less than 1.01 µg/mL in experiment [3].

Take `NC(=O)c1c(F)ccc(OCc2nc(-c3ccc(OC(F)(F)F)cc3)ns2)c1F` [Compound 20, 2,6-difluoro-3-({3[4-(trifluoromethoxy)phenyl]-1,2,4-thiadiazol-5-yl}methoxy)benzamide]: the MIC was 0.06 µg/mL (≈ 0.139 µM) in experiment [1], 0.06 µg/mL (≈ 0.139 µM) in experiment [2] and less than 1.01 µg/mL in experiment [3]. As to `NC(=O)c1c(F)ccc(OCCCCOc2ccc(S(F)(F)(F)(F)F)cc2)c1F` [Compound 159], the MIC in experiment [1] was 0.12 µg/mL (≈ 0.268 µM); in experiment [2] it was 0.12 µg/mL (≈ 0.268 µM); in experiment [3], less than 1.01 µg/mL. For `C#CCCCCCCCCCOc1cccc(C(N)=O)c1F` [Compound 9, 2-fluoro-3-(undec-10-yn-1-yloxy)benzamide], the MIC in experiment [1] is 1 µg/mL (≈ 3.27 µM); in experiment [2], 0.5 µg/mL (≈ 1.64 µM); in experiment [3], less than 1.01 µg/mL.

For `NC(=O)c1c(F)ccc(OCc2nc(-c3ccc(OC(F)(F)F)cc3)c(C(F)(F)F)o2)c1F` [Compound 213, 2,6-difluoro-3-({4-[4-(trifluoromethoxy)phenyl]-5-(trifluoromethyl)-1,3-oxazol-2-yl}methoxy)benzamide], the MIC in experiment [1] was 0.12 µg/mL (≈ 0.249 µM); in experiment [2], 0.25 µg/mL (≈ 0.518 µM); in experiment [3], less than 1.01 µg/mL. Regarding `NC(=O)c1c(F)ccc(OCCOCCOc2ccc(Cl)cc2)c1F` [Compound 136, 3-{2-[2-(4-chlorophenoxy)ethoxy]ethoxy}-2,6-difluorobenzamide], the MIC in experiment [1] is 4 µg/mL (≈ 10.8 µM); in experiment [2], 4 µg/mL (≈ 10.8 µM); in experiment [3] it was 1 to 4 µg/mL (≈ 2.69 to 10.8 µM). On to `NC(=O)c1c(F)ccc(OCCCCCCOc2ccc(OC(F)(F)F)cc2)c1F` [Compound 134, 2,6-difluoro-3-({6-[4 (trifluoromethoxy)phenoxy]hexyl}oxy) benzamide], for which the MIC in experiment [1] was 0.25 µg/mL (≈ 0.577 µM); in experiment [2], 0.25 µg/mL (≈ 0.577 µM); in experiment [3], less than 1.01 µg/mL. As to `NC(=O)c1c(F)ccc(OCCc2nc(-c3ccc(OC(F)(F)F)cc3)cs2)c1F` [Compound 111, 2,6-difluoro-3-(2-{4-[4-(trifluoromethoxy)phenyl]-1,3-thiazol-2-yl}ethoxy)benzamide], the MIC in experiment [1] is 0.25 µg/mL (≈ 0.563 µM); in experiment [2] it was 0.25 µg/mL (≈ 0.563 µM); in experiment [3] it was less than 1.01 µg/mL.

Regarding `CC(=O)OCC(Oc1cccc(C(N)=O)c1F)c1nc(-c2ccc(C(F)(F)F)cc2)c(Br)o1` (centres unmarked) [Compound 57, 2-{5-bromo-4-[4-(trifluoromethyl)phenyl]-1,3-oxazol-2-yl}-2-(3-carbamoyl-2-fluorophenoxy)ethyl acetate], the results for the MIC in experiment [1], in experiment [2] and in experiment [3] were 0.5 µg/mL, 0.5 µg/mL and less than 1.01 µg/mL, respectively.

`COCCN(CCCCOc1ccc(OC(F)(F)F)cc1)c1ccc(F)c(C(N)=O)c1F` [Compound 184, 2,6-difluoro-3-[(2-methoxyethyl){4-[4-(trifluoromethoxy)phenoxy]butyl}amino]benzamide]: in experiment [3], the MIC was 1 to 4 µg/mL (≈ 2.16 to 8.65 µM).

As to `NC(=O)c1c(F)ccc(OC(COC(=O)NCCn2ccccc2=O)c2nc(-c3ccc(C(F)(F)F)cc3)c(Br)o2)c1F` (centres unmarked) [Compound 92, 2-{5-bromo-4-[4-(trifluoromethyl)phenyl]-1,3-oxazol-2-yl}-2-(3-carbamoyl-2,4-difluorophenoxy)ethyl [2-(2-oxopyridin-1(2H)-yl)ethyl]carbamate], the MIC in experiment [3] fell in the range of 1 to 4 µg/mL (≈ 1.49 to 5.96 µM). Turning to `NC(=O)c1c(F)ccc(OCCCCNc2ccc(C(F)(F)F)cc2)c1F` [Compound 147, 2,6-difluoro-3-(4-{[4-(trifluoromethyl)phenyl]amino}butoxy) benzamide], in experiment [3], the MIC lay within 1 to 4 µg/mL (≈ 2.58 to 10.3 µM).

With `NC(=O)c1c(F)ccc(OC(CNC(=O)c2cccnc2)c2nc(-c3ccc(C(F)(F)F)cc3)c(Br)o2)c1F` (racemic) [Compound 97, N-[2-{5-bromo-4-[4-(trifluoromethyl)phenyl]-1,3-oxazol-2-yl}-2-(3-carbamoyl-2,4-difluorophenoxy)ethyl]pyridine-3-carboxamide], in experiment [3], the MIC is 1 to 4 µg/mL (≈ 1.64 to 6.54 µM). In the case of `NC(=O)c1c(F)ccc(OCc2nc(-c3ccc(S(F)(F)(F)(F)F)cc3)co2)c1F` [Compound 121, 2,6-difluoro-3-({4-[4-(pentafluoro-lambda~6~- sulfanyl)phenyl]-1,3-oxazol-2-yl}methoxy)benzamide], the MIC in experiment [3] lay within 1 to 4 µg/mL (≈ 2.19 to 8.77 µM). On to `CN(C)CC(=O)OCC(Oc1ccc(F)c(C(N)=O)c1F)c1nc(-c2ccc(C(F)(F)F)cc2)c(Br)o1` (centres unmarked) [Compound 36, 2-{5-bromo-4-[4-(trifluoromethyl)phenyl]-1,3-oxazol-2-yl}-2-(3-carbamoyl-2,4-difluorophenoxy)ethyl N,N-dimethylglycinate], for which the MIC in experiment [3] is less than 1.01 µg/mL. For the molecule `NC(=O)c1c(F)ccc(OCCCCOc2ccc(OC(F)(F)F)c(Cl)c2)c1F` [Compound 164, 3-{4-[3-chloro-4-(trifluoromethoxy)phenoxy]butoxy}-2,6-difluorobenzamide], in experiment [3], the MIC is less than 1.01 µg/mL. For the molecule `CNC(=O)OCC(Oc1ccc(F)c(C(N)=O)c1F)c1nc(-c2ccc(C(F)(F)F)cc2)c(Br)o1` (centres unmarked) [Compound 50, 2-{5-bromo-4-[4-(trifluoromethyl)phenyl]-1,3-oxazol-2-yl}-2-(3-carbamoyl-2,4-difluorophenoxy)ethyl methylcarbamate], the MIC in experiment [3] is less than 1.01 µg/mL.

With `NC(=O)c1c(F)ccc(OCc2nc(-c3ccc(C(F)(F)F)cc3)c(Br)s2)c1F` [Compound 211, 3-({5-bromo-4-[4-(trifluoromethyl)phenyl]-1,3-thiazol-2-yl}methoxy)-2,6-difluorobenzamide], in experiment [3], the MIC lay in the range of 1 to 4 µg/mL (≈ 2.03 to 8.11 µM). In the case of `NC(=O)c1c(F)ccc(OC(COC(=O)CN2C(=O)c3ccccc3C2=O)c2nc(-c3ccc(C(F)(F)F)cc3)c(Br)o2)c1F` (centres unmarked) [Compound 38, 2-{5-bromo-4-[4-(trifluoromethyl)phenyl]-1,3-oxazol-2-yl}-2-(3-carbamoyl-2,4-difluorophenoxy)ethyl (1,3-dioxo-1,3-dihydro-2H-isoindo1-2-yl)acetate], the MIC in experiment [3] is less than 1.01 µg/mL. Consider `CCC(Oc1ccc(F)c(C(N)=O)c1F)c1nc(-c2ccc(Cl)cc2)c(Br)o1` (centres unmarked) [Compound 27, 3-{1-[5-bromo-4-(4-chlorophenyl)-1,3-oxazol-2-yl]propoxy}-2,6-difluorobenzamide], for which, in experiment [3], the MIC lay within 1 to 4 µg/mL (≈ 2.12 to 8.48 µM).

Take `CC(=O)OCC(Oc1ccc(F)c(C(N)=O)c1F)c1nc(-c2ccc(OC(F)(F)F)cc2)c(Br)o1` (centres unmarked) [Compound 51, 2-{5-bromo-4-[4-(trifluoromethoxy)phenyl]-1,3-oxazol-2-yl}-2-(3-carbamoyl-2,4-difluorophenoxy)ethyl acetate]: the MIC in experiment [3] is less than 1.01 µg/mL.

`Cn1ccnc1CNC(=O)OCC(Oc1ccc(F)c(C(N)=O)c1F)c1nc(-c2ccc(C(F)(F)F)cc2)c(Br)o1` (centres unmarked) [Compound 79, 2-{5-bromo-4-[4-(trifluoromethyl)phenyl]-1,3-oxazol-2-yl}-2-(3-carbamoyl-2,4-difluorophenoxy)ethyl [(1-methyl-1H-imidazol-2-yl)methyl]carbamate]: the MIC in experiment [3] is 4 to 16 µg/mL (≈ 6.21 to 24.8 µM). Still for that read-out and setting: the same measure for `NC(=O)c1c(F)ccc(N(CCO)CCCCOc2ccc(OC(F)(F)F)cc2)c1F` [Compound 181, 2,6-difluoro-3-[(2-hydroxyethyl){4-[4-(trifluoromethoxy)phenoxy]butyl}amino] benzamide]: 1 to 4 µg/mL (≈ 2.23 to 8.92 µM).

As to `C=CCc1ccc2sc(COc3ccc(F)c(C(N)=O)c3F)nc2c1` [Compound 14, 2,6-difluoro-3-{[5-(prop-2-en-1-yl)-1,3-benzothiazol-2-yl]methoxy}benzamide], the MIC in experiment [3] lay within 4 to 16 µg/mL (≈ 11.1 to 44.4 µM).

Take `COc1ccc(-c2nc(C(C)Oc3ccc(F)c(C(N)=O)c3F)oc2Br)cc1` (centres unmarked) [Compound 24, 3-{1-[5-bromo-4-(4-methoxyphenyl)-1,3-oxazol-2-yl]ethoxy}-2,6-difluorobenzamide]: the MIC in experiment [3] is less than 1.01 µg/mL. The same measure, in the same setting: as for `NC(=O)c1c(F)ccc(OCCCCOc2ccc(C(F)(F)F)nc2)c1F` [Compound 144, 2,6-difluoro-3-(4-{[6-(trifluoromethyl)pyridin-3-yl]oxy}butoxy)benzamide], the figure is 1 to 4 µg/mL (≈ 2.56 to 10.2 µM).
